For assay [1], the target named is T1, human Kv1.3 (Homo sapiens, UniProt P22001). Type of assay: cell-based. To be noted: for IC50: read-out: IC50 Sustained.
The next assay has as its system CD40L on CD4+ T cells. Type of assay: cell-based, human.
Another assay deals with IL-2R on CD4+ T cells. Type of assay: cell-based, human.
Assay [2] concerns IFN-g production in human whole blood. The format is cell-based.
Assay [3] has as its system IL-2 production in human whole blood. Type of assay: cell-based.
Assay [4] deals with T1, human Kv1.3. The format is cell-based. Set-up: expressed in transfected cells.

Several values for one entry are separate records, joined by “and”; a condition that tells them apart may be missing. Identical values can stand only once. Entries after “also recorded” stand apart in the source; their conditions may differ. Bridge positions count the residues as written; N and C are the ends. Square brackets hold non-standard residues; d marks the D form. Ends that are not written are not given here. Peptide text beside a SMILES is read from it. 1Nal = N[C@@H](Cc1cccc2ccccc12)C(=O)O

T1 sequence (P22001 whole entry): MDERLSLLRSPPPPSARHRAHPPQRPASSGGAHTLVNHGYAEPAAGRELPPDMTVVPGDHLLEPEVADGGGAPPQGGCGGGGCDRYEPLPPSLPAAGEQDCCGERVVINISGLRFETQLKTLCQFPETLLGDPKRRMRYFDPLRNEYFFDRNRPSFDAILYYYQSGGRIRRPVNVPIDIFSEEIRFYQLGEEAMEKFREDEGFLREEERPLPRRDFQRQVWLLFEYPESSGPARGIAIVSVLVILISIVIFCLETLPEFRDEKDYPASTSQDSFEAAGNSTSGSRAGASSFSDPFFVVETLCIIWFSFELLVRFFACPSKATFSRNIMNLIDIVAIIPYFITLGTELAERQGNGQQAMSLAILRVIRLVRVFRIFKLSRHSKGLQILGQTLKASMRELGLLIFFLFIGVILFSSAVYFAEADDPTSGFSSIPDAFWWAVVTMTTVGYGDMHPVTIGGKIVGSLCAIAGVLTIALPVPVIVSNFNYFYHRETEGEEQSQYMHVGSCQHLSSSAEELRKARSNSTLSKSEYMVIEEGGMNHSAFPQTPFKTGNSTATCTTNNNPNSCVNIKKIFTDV

Turning to “Fc-L10-OSK1[K7S,E16K,K20D]: OSK1-peptibody with triple amino acid substitutions at positions 7, 16 and 20”, in the assay with human Kv1.3 [1], the “fold less potent than the synthetic OSK1 toxin peptide” value is recorded as “approximately 21 fold”.

Consider PEG-Fc-L10-SHK(2-35), for which the IC50 in the assay with human Kv1.3 [1] is 0.175 nM and 0.158 nM. Turning to “dendrotoxin-K [DTX-K, reference compound]”, the “block of thapsigargin-induced upregulation of CD40L on T cells (in words)” value (shortened to “block … of CD40L on T cells (in words)”) with CD40L on CD4+ T cells is recorded as “no significant activity”. In the assay with IL-2R on CD4+ T cells, the “block of thapsigargin-induced upregulation of the IL-2R on T cells (in words)” value (from here on “block … of the IL-2R on T cells (in words)”) is recorded as “no significant activity”. Regarding `CC[C@H](C)[C@@H]1NC(=O)[C@H](CCCCN)NC(=O)[C@@H](NC(=O)[C@H](CCCCN)NC(=O)[C@@H](NC(=O)[C@H](CC(N)=O)NC(=O)[C@@H](NC(=O)[C@@H](NC(=O)[C@@H](NC(=O)CN)C(C)C)[C@@H](C)CC)[C@@H](C)CC)C(C)C)CSSC[C@@H]2NC(=O)[C@H](CCCCN)NC(=O)CNC(=O)[C@H](Cc3ccccc3)NC(=O)[C@H](CCCNC(=N)N)NC(=O)[C@H](CCSC)NC(=O)CNC(=O)[C@H](C)NC(=O)[C@H](Cc3cccc4ccccc34)NC(=O)[C@H](CCCCN)NC(=O)[C@@H]3CSSC[C@@H](C(=O)N[C@H](C(=O)N4CCC[C@H]4C(=O)N[C@@H](CCCCN)C(=O)O)[C@@H](C)O)NC(=O)[C@H](Cc4c[nH]cn4)NC(=O)[C@H](CSSC[C@H](NC(=O)[C@H](CCC(N)=O)NC(=O)[C@H](CCCNC(=N)N)NC(=O)[C@H](CO)NC1=O)C(=O)N[C@@H](CC(C)C)C(=O)N[C@@H](CCC(=O)O)C(=O)N1CCC[C@H]1C(=O)N3)NC(=O)[C@H](CCCCN)NC(=O)CNC(=O)[C@H](CC(N)=O)NC(=O)[C@H](CCSC)NC2=O` [K20Nal] (H-GVIINVKCKISRQCLEPCK[1Nal]AGMRFGKCMNGKCHCTPK-OH; disulfide 8-28, 14-33, 18-35), the IC50 in assay [2] (read-out: Analogue Activity (IC50, pM) WB/IFNg) amounted to 12 pM. On to “iberiotoxin (QFTDVDCSVSKECWSVCKDLFGVDRGKCMGKKCRCYQ; Definition of Artificial Sequence: Synthetic peptide) [IbTx, reference compound]”, for which, in assay [3], the “block of thapsigargin-induced IL-2 production in human whole blood (in words)” value was “no significant activity”. Further, the “block of thapsigargin-induced IFN-g production in human whole blood (in words)” value in assay [2] was “no significant activity”. Moreover, in the assay on CD40L on CD4+ T cells, the “block … of CD40L on T cells (in words)” value is “no significant activity”. In addition, the “block … of the IL-2R on T cells (in words)” value in the assay with IL-2R on CD4+ T cells is “no significant activity”.

In the case of `CC[C@H](C)[C@@H]1NC(=O)[C@H](CCCCN)NC(=O)[C@@H](NC(=O)[C@H](CCCCN)NC(=O)[C@@H](NC(=O)[C@H](CC(N)=O)NC(=O)[C@@H](NC(=O)[C@@H](NC(=O)[C@@H](NC(=O)CN)C(C)C)[C@@H](C)CC)[C@@H](C)CC)C(C)C)CSSC[C@@H]2NC(=O)[C@H](CCCCN)NC(=O)CNC(=O)[C@H](Cc3ccccc3)NC(=O)[C@H](CCCNC(=N)N)NC(=O)[C@H](CCSC)NC(=O)CNC(=O)[C@H](C)NC(=O)[C@H](CCCCN)NC(=O)[C@H](CCCCN)NC(=O)[C@@H]3CSSC[C@@H](C(=O)N[C@H](C(=O)N4CCC[C@H]4C(=O)N[C@@H](CCCCN)C(=O)O)[C@@H](C)O)NC(=O)[C@H](Cc4c[nH]cn4)NC(=O)[C@H](CSSC[C@H](NC(=O)[C@H](CCC(N)=O)NC(=O)[C@H](CCCNC(=N)N)NC(=O)[C@H](CO)NC1=O)C(=O)N[C@@H](CC(C)C)C(=O)N[C@@H](CCC(=O)O)C(=O)N1CCC[C@H]1C(=O)N3)NC(=O)[C@H](CCCCN)NC(=O)CNC(=O)[C@H](CC(N)=O)NC(=O)[C@H](C)NC2=O` [OSK1[Ala-29]] (H-GVIINVKCKISRQCLEPCKKAGMRFGKCANGKCHCTPK-OH; disulfide 8-28, 14-33, 18-35), the “potency in blocking the cytokine response relative to cyclosporin A (in words)” value in assay [3] was “several orders of magnitude more potent”. At human Kv1.3 [4], the “inhibition of the Kv1.3 current (in words)” value was “potent inhibition of the Kv1.3 current”. For the molecule Fc-L10-OSK1[K7S], the “fold less potent than the synthetic OSK1 toxin peptide” value in the assay with human Kv1.3 [1] was “approximately 10 fold”. With “Fc-L10-ShK[2-35]: human IgG1 Fc fused via L10 linker to ShK[2-35]; peptibody”, in assay [3], the “block of thapsigargin-induced IL-2 production in human whole blood (in words)” value is on record as “suppressed; also recorded: potently blocked IL-2 secretion”. For the same molecule, the “block of thapsigargin-induced IFN-g production in human whole blood (in words)” value in assay [2] is given as “suppressed; also recorded: blocked”. Besides, in the assay on CD40L on CD4+ T cells, the “block … of CD40L on T cells (in words)” value is “blocked”. Besides, in the assay with IL-2R on CD4+ T cells, the “block … of the IL-2R on T cells (in words)” value was “blocked”. Turning to PEG-Fc-L10-OSK1, the IC50 with human Kv1.3 [1] was 0.256 nM and 0.332 nM. With “SEQ ID No: 4989: OSK1 analog without beta strand 1 (labeled des 1-7), Table 42 (CKISRQCLKPCKDAGMRFGKCMNGKCHC-NH2; ends and bridges not checked)”, the “blockade of the whole blood cytokine response / inflammation (in words)” value in assay [3] is recorded as “still retain activity in blocking inflammation”.

B1: FcLoop-L4-OsK1-L4: FcLoop OSK1 toxin conjugate as named in b1013 only (protein)
chain: MDKTHTCPPCPAPELLGGPSVFLFPPKPKDTLMISRTPEVTCVVVDVSHEDPEVKFNWYVDGVEVHNAKTKPREEQYNSTYRVVSVLTVLHQDWLNGKEYKCKVSNKALPAPIEKTISKAKGQPREPQVYTLPPSRDELGGGGGVIINVKCKISRQCLEPCKKAGMRFGKCMNGKCHCTPKGGTKNQVSLTCLVKGFYPSDIAVEWESNGQPENNYKTTPPVLDSDGSFFLYSKLTVDKSRWQQGNVFSCSVMHEALHNHYTQKSLSLSPGK
Regarding B1, the “blockade of the whole blood cytokine response / inflammation (in words)” value in assay [3] was “IC50 values in the pM range”.

B2: PEGylated CH2-OSK1: CH2-OSK1 fusion protein mono-PEGylated with 20 kD methoxy-PEG-aldehyde (conjugate)
chain: MGGHHHHHHGGGPSVFLFPPKPKDTLMISRTPEVTCVVVDVSHEDPEVKFNWYVDGVEVHNAKTKPREEQYNSTYRVVSVLTVLHQDWLNGKEYKCKVSNKALPAPIEKTISGGGGSGGGGSGVIINVKCKISRQCLEPCKKAGMRFGKCMNGKCHCTPK
In the case of B2, the “blockade of the whole blood cytokine response / inflammation (in words)” value in assay [3] was “active in blocking inflammation; also recorded: modest blockade of the whole blood cytokine response”.

B3: FcLoop-L2-OsK1-L2: OsK1 inserted into the human IgG1 Fc-loop domain with Gly linkers (protein)
chain: MDKTHTCPPCPAPELLGGPSVFLFPPKPKDTLMISRTPEVTCVVVDVSHEDPEVKFNWYVDGVEVHNAKTKPREEQYNSTYRVVSVLTVLHQDWLNGKEYKCKVSNKALPAPIEKTISKAKGQPREPQVYTLPPSRDELGGGVIINVKCKISRQCLEPCKKAGMRFGKCMNGKCHCTPKGGTKNQVSLTCLVKGFYPSDIAVEWESNGQPENNYKTTPPVLDSDGSFFLYSKLTVDKSRWQQGNVFSCSVMHEALHNHYTQKSLSLSPGK
modifications: Definition of Artificial Sequence: Synthetic protein
In the case of B3, in assay [3], the “blockade of the whole blood cytokine response / inflammation (in words)” value is on record as “IC50 values in the pM range”.

B4: FcLoop-L2-ShK-L2: ShK inserted into the human IgG1 Fc-loop domain with Gly linkers (protein)
chain: MDKTHTCPPCPAPELLGGPSVFLFPPKPKDTLMISRTPEVTCVVVDVSHEDPEVKFNWYVDGVEVHNAKTKPREEQYNSTYRVVSVLTVLHQDWLNGKEYKCKVSNKALPAPIEKTISKAKGQPREPQVYTLPPSRDELGGRSCIDTIPKSRCTAFQCKHSMKYRLSFCRKTCGTCGGTKNQVSLTCLVKGFYPSDIAVEWESNGQPENNYKTTPPVLDSDGSFFLYSKLTVDKSRWQQGNVFSCSVMHEALHNHYTQKSLSLSPGK
modifications: Definition of Artificial Sequence: Synthetic protein
As for B4, the “blockade of the whole blood cytokine response / inflammation (in words)” value in assay [3] was “IC50 values in the pM range”.

The values are drawn from patent US7910102B2 (priority 2006, dated 2011).
